ChEMBL document CHEMBL5696442, “Discovery of type II inhibitors of TGFβ-activated kinase 1 (TAK1) and mitogen-activated protein kinase kinase kinase kinase 2 (MAP4K2)” (J Med Chem, 2015)
Activity calls are given as the source filed them. The rule behind the calls is not given here.

What was measured:
[1] = molecular target: Serine/threonine-protein kinase PLK1 (Homo sapiens) (UniProt P53350); assay: Inhibition of PLK1 Lys2 labeling site harbouring VIHRDLKLGNLFLNEDLEVK in human Huh-7 cell lysate at 1 uM by KiNativ Profiling analysis relative to control; type: subcellular
Chain of Serine/threonine-protein kinase PLK1 (Homo sapiens) (P53350 whole entry): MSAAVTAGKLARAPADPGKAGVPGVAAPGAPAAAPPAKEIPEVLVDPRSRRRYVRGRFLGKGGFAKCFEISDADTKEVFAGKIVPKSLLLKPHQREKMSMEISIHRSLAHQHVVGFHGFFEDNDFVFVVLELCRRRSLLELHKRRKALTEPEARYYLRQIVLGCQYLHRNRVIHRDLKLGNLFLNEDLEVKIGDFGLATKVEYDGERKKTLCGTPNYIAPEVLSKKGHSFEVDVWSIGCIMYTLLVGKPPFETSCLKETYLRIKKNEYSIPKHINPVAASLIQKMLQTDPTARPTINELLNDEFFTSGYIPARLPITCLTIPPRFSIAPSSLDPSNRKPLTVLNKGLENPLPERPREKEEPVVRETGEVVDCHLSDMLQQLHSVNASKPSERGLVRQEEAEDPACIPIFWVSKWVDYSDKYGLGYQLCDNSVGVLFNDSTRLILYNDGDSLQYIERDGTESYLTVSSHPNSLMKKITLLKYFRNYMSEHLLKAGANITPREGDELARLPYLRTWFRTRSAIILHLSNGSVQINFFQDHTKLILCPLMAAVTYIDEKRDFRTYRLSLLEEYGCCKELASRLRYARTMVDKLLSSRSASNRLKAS

[2] = molecular target: Tyrosine-protein kinase Fyn (Homo sapiens) (UniProt P06241); assay: Inhibition of FYN ACT labeling site in human Huh-7 cell lysate at 1 uM by KiNativ Profiling analysis relative to control; type: subcellular
Chain of Tyrosine-protein kinase Fyn (Homo sapiens) (P06241 2-537 limits assumed): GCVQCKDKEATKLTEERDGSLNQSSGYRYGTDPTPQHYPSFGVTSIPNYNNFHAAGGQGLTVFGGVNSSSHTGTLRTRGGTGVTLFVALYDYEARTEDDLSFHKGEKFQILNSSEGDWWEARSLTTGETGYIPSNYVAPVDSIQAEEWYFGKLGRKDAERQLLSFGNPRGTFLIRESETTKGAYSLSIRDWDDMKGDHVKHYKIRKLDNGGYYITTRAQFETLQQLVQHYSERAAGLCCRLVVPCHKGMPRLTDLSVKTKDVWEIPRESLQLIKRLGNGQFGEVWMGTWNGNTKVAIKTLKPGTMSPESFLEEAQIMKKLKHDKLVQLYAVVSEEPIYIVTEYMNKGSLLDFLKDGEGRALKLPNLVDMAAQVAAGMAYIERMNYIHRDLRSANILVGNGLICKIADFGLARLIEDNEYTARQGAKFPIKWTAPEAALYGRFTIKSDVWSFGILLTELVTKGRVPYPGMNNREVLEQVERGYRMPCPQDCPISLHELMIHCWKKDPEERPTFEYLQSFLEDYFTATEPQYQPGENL

[3] = molecular target: Cyclin-dependent kinase 12 (Homo sapiens) (UniProt Q9NYV4); assay: Inhibition of CRK7 Lys2 labeling site in human Huh-7 cells at 1 uM by KiNativ Profiling analysis relative to control; type: cell-based
[4] = molecular target: Calcium/calmodulin-dependent protein kinase type II subunit gamma (Homo sapiens) (UniProt Q13555); assay: Inhibition of CaMK2g Lys1 labeling site harbouring KTSTQEYAAKIINTK in human Huh-7 cell lysate at 1 uM by KiNativ Profiling analysis relative to control; type: subcellular
Chain of Calcium/calmodulin-dependent protein kinase type II subunit gamma (Homo sapiens) (Q13555 whole entry): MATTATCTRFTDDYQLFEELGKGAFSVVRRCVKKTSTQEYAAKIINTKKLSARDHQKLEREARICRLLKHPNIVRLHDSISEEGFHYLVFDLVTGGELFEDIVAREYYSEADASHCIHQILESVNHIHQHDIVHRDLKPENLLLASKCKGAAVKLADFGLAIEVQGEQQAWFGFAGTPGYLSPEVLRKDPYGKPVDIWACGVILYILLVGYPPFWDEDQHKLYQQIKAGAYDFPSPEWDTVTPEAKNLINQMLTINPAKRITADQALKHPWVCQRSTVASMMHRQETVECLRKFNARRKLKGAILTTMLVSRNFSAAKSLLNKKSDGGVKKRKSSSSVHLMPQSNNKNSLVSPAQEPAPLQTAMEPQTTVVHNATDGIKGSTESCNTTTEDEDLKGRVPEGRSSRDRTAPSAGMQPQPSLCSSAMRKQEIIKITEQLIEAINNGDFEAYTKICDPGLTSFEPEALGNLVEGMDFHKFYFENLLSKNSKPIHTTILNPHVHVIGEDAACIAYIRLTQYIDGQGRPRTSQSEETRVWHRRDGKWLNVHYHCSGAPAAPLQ

[5] = molecular target: Mitogen-activated protein kinase kinase kinase 4 (Homo sapiens) (UniProt Q9Y6R4); assay: Inhibition of MAP3K4 Lys1 labeling site in human Huh-7 cell lysate at 1 uM by KiNativ Profiling analysis relative to control; type: subcellular
[6] = molecular target: Myosin light chain kinase family member 4 (Homo sapiens) (UniProt Q86YV6); assay: Inhibition of SgK085 (unknown origin) at 10 uM by Ambit Kinomescan binding assay
Chain of Myosin light chain kinase family member 4 (Homo sapiens) (Q86YV6 whole entry): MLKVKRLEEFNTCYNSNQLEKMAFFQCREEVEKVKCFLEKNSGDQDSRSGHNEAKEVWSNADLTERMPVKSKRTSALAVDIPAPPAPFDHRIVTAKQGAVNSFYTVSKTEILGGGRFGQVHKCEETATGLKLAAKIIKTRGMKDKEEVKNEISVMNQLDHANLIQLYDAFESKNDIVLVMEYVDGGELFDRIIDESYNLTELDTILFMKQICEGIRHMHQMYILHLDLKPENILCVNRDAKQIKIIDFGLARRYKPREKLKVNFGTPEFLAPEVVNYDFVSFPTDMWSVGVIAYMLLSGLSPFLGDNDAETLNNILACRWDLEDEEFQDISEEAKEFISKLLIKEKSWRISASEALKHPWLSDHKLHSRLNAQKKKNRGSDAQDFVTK

[7] = molecular target: Activated CDC42 kinase 1 (Homo sapiens) (UniProt Q07912); assay: Inhibition of TNK2 (unknown origin) at 10 uM by Ambit Kinomescan binding assay
[8] = molecular target: Serine/threonine-protein kinase DCLK3 (Homo sapiens) (UniProt Q9C098); assay: Inhibition of DCAMKL3 (unknown origin) at 10 uM by Ambit Kinomescan binding assay
Chain of Serine/threonine-protein kinase DCLK3 (Homo sapiens) (Q9C098 whole entry): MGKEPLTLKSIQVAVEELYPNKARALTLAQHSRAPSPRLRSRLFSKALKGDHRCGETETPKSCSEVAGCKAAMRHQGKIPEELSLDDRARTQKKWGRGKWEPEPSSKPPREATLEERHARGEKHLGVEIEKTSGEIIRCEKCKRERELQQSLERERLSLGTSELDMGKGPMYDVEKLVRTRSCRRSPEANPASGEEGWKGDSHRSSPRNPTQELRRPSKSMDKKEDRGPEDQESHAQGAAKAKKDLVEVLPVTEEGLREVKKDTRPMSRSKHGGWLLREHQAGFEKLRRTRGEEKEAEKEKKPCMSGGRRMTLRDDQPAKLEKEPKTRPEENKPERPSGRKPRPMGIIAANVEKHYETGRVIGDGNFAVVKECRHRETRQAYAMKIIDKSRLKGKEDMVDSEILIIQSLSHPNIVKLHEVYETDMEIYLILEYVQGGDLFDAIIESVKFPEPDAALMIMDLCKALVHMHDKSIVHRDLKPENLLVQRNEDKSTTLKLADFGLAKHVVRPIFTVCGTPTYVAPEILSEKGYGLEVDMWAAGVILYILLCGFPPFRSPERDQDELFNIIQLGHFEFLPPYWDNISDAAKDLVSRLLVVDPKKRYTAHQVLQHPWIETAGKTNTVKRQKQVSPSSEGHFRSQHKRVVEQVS

[9] = molecular target: T1, Serine/threonine-protein kinase STK11 (Homo sapiens) (UniProt Q15831); assay: Inhibition of LKB1 K2 labeling site in human Huh-7 cells at 1 uM by KiNativ Profiling analysis relative to control; type: cell-based
T1 sequence (whole entry): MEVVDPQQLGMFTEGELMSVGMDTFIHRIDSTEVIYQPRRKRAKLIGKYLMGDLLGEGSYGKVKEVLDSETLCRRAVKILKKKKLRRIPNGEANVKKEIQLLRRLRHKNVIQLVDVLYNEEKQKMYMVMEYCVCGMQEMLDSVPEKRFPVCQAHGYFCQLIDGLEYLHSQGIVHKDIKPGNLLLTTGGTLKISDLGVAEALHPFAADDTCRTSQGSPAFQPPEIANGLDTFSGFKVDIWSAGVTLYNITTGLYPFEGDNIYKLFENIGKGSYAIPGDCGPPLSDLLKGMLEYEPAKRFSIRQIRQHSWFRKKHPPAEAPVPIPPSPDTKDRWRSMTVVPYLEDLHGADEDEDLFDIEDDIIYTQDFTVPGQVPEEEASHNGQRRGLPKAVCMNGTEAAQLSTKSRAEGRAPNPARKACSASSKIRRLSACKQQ

[10] = Inhibition of Wnk1/2/4 ACT labeling site in human Huh-7 cells at 1 uM by KiNativ Profiling analysis relative to control; conditions: condition cancer
[11] = molecular target: Serine/threonine-protein kinase 24 (Homo sapiens) (UniProt Q9Y6E0); assay: Inhibition of MST3 K2 labeling site harbouring DIKAANVLLSEHGEVK in human Huh-7 cells at 1 uM by KiNativ Profiling analysis relative to control; type: cell-based
Chain of Serine/threonine-protein kinase 24 (Homo sapiens) (Q9Y6E0 whole entry, looked up): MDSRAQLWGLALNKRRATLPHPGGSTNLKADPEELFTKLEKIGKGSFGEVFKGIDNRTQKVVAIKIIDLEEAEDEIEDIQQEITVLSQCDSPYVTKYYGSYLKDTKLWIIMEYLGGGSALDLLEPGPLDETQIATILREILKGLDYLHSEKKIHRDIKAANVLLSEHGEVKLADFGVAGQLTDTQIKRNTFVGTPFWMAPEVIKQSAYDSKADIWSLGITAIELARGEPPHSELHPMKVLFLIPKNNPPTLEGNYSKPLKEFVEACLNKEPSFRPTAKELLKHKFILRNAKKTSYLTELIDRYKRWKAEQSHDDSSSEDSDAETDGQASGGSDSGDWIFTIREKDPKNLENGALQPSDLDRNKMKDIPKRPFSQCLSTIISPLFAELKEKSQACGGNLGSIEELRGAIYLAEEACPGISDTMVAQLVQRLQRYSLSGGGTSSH

[12] = molecular target: T2, Phosphatidylinositol 5-phosphate 4-kinase type-2 beta (Homo sapiens) (UniProt P78356); assay: Inhibition of PIP5K2B (unknown origin) at 1 uM by Ambit Kinomescan binding assay relative to control; values are per cent of control
T2 sequence (whole entry): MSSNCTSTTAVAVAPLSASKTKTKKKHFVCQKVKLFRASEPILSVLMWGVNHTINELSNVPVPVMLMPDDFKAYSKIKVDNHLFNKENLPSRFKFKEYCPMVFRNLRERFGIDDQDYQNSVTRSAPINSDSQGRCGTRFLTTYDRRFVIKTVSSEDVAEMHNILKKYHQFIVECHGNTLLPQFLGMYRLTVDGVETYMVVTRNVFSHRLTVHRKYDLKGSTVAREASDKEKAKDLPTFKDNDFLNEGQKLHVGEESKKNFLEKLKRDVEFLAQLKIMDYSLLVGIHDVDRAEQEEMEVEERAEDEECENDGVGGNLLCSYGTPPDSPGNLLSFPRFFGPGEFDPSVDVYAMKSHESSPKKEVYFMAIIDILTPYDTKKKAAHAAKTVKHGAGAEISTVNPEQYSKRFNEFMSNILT

[13] = molecular target: Dual specificity mitogen-activated protein kinase kinase 2 (Homo sapiens) (UniProt P36507); assay: Inhibition of MEK2 (unknown origin) at 1 uM by Ambit Kinomescan binding assay relative to control; values are per cent of control
Chain of Dual specificity mitogen-activated protein kinase kinase 2 (Homo sapiens) (P36507 whole entry): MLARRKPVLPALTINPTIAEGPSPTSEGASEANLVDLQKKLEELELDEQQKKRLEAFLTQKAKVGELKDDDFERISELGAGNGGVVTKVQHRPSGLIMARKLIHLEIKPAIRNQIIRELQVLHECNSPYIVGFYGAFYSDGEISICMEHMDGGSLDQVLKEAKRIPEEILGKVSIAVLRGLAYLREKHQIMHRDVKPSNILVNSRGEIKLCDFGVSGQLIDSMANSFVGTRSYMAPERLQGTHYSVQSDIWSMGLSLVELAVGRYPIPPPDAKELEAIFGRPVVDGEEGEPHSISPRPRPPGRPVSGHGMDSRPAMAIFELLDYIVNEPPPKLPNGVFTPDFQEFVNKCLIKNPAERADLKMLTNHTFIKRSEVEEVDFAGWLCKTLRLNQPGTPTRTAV

[14] = molecular target: T3, Mitogen-activated protein kinase kinase kinase kinase 2 (Homo sapiens) (UniProt Q12851); assay: Inhibition of MAP4K2 (unknown origin) at 1 uM by Ambit Kinomescan binding assay relative to control; values are per cent of control
T3 sequence (whole entry): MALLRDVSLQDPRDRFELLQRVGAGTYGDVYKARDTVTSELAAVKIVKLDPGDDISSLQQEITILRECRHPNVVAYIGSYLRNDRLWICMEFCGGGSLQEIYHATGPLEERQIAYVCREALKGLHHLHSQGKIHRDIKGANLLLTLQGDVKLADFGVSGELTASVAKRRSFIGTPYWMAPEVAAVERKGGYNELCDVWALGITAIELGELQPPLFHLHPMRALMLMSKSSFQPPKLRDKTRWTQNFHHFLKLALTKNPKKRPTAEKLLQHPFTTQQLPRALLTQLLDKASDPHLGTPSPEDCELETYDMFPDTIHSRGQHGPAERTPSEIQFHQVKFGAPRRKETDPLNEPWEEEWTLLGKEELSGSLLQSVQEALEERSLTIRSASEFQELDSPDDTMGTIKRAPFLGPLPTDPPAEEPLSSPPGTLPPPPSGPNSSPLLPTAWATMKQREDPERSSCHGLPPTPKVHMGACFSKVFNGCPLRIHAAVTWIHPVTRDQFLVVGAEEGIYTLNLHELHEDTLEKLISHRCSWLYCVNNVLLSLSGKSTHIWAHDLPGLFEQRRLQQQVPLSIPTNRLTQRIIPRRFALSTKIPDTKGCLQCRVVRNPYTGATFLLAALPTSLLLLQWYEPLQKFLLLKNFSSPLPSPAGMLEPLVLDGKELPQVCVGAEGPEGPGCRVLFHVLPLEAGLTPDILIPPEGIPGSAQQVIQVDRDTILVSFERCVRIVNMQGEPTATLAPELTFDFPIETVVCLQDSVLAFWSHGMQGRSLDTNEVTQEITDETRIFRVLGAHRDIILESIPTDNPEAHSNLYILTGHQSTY

[15] = molecular target: Ephrin type-A receptor 7 (Homo sapiens) (UniProt Q15375); assay: Inhibition of EPHA7 (unknown origin) at 1 uM by Ambit Kinomescan binding assay relative to control
Chain of Ephrin type-A receptor 7 (Homo sapiens) (Q15375 28-998 limits assumed): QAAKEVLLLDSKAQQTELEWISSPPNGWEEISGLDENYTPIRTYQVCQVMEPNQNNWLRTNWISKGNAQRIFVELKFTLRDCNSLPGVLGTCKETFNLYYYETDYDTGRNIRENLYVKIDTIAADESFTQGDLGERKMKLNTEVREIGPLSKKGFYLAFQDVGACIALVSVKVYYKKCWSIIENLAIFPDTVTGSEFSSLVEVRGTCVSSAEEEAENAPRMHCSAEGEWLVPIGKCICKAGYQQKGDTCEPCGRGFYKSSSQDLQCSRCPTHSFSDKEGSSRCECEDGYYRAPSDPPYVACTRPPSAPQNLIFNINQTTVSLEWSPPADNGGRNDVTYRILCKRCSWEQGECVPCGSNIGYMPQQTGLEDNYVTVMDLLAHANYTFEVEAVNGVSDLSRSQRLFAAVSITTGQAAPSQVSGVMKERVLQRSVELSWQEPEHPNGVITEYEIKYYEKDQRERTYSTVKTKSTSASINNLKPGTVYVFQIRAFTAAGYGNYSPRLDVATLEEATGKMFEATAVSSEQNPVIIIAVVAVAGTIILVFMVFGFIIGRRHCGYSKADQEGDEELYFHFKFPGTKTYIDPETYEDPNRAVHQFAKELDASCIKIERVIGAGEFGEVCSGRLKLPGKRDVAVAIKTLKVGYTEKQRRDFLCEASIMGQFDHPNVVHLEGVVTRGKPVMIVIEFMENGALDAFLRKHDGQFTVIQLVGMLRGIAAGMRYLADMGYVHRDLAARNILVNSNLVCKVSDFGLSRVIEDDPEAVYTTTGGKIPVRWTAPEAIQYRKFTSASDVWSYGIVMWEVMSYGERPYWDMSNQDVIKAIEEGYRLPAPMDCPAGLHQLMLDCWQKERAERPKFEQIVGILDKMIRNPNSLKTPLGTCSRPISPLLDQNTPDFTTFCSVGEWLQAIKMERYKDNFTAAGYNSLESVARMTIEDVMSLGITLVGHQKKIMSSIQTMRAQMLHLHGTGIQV

Question: For `CNc1cc(Oc2cc(C(=O)Nc3cc(N4CCN(C)CC4)cc(C(F)(F)F)c3)ccc2C)ncn1`, which inhibition [1] is on record?
Answer: 10.8%

Question: What about the inhibition [2] of the same compound?
Answer: 22%

Question: And the inhibition [3]?
Answer: 40.3%

Question: What about the inhibition [4] of the same compound?
Answer: 6.9%

Question: What about the inhibition [5] of the same compound?
Answer: -1.7%

Question: For `CCN1CCN(Cc2ccc(NC(=O)c3ccc(C)c(Oc4ccnc5[nH]ccc45)c3)cc2C(F)(F)F)CC1`, which inhibition [6] is on record?
Answer: inactive

Question: And the inhibition [7]?
Answer: inactive

Question: What about the inhibition [8] of the same compound?
Answer: inactive

Question: And the inhibition [9]?
Answer: 5.5%

Question: And the inhibition at 1 µM [10]?
Answer: 7.6%

Question: And the inhibition [11]?
Answer: -7.8%

Question: For `CCN1CCN(Cc2ccc(NC(=O)c3ccc(C)c(/C=C/c4cnc5[nH]ccc5c4OC)c3)cc2C(F)(F)F)CC1`, which residual activity [12] is on record?
Answer: 12%

Question: What about the residual activity [13] of the same compound?
Answer: 74%

Question: And the percent of control [14]?
Answer: 3.2%

Question: And the inhibition [15]?
Answer: 78%
